What was measured:
[1] = tested on: barnyardgrass; assay: Test B flooded paddy test; format: in vivo, Echinochloa crus-galli; conditions: Flood, 250 g ai/ha; 0 to 100 scale where 0 is no effect and 100 is complete control
Procedure, shortened: (§1)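 Evaluation is visual, against untreated controls, 13 to 15 days after treatment. Before treatment, plants reached the 2-leaf stage; pots were then flooded 3 cm deep, compound was added to the water, and that level was maintained. Ratings run 0 to 100, with 100 meaning complete control.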

[2] = tested on: blackgrass; assay: Test A postemergence; format: in vivo, Alopecurus myosuroides
Procedure, shortened: (§2)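 Compounds in non-phytotoxic solvent with surfactant applied as soil spray preemergence, or postemergence to plants 2-10 cm at one- to two-leaf stage, in loam/sand. After approximately 10 days in greenhouse, injury rated visually versus untreated controls, 0 (no effect) to 100 (complete control).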

[3] = tested on: rice; assay: Test B flooded paddy test; format: in vivo, Oryza sativa; conditions: Flood, 250 g ai/ha; 0 to 100 scale where 0 is no effect and 100 is complete control
Procedure, shortened: as §1

[4] = tested on: sedge, umbrella; assay: Test B flooded paddy test; format: in vivo, Cyperus difformis; conditions: Flood, 250 g ai/ha; 0 to 100 scale where 0 is no effect and 100 is complete control
Procedure, shortened: as §1

[5] = tested on: kochia; assay: Test A postemergence; format: in vivo, Kochia scoparia
Procedure, shortened: as §2

[6] = tested on: ragweed; assay: Test A preemergence; format: in vivo, Ambrosia elatior; conditions: for Plant response rating, Ragweed: 0 to 100 scale where 0 is no effect and 100 is complete control
Procedure, shortened: as §2

[7] = tested on: pigweed; assay: Test A postemergence; format: in vivo, Amaranthus retroflexus; conditions: 0 to 100 scale, 0 no effect, 100 complete control
Procedure, shortened: as §2

[8] = tested on: Italian ryegrass; assay: Test A postemergence; format: in vivo, Lolium multiflorum; conditions: 0 to 100 scale, 0 no effect, 100 complete control
Procedure, shortened: as §2

[9] = tested on: ragweed; assay: Test A postemergence; format: in vivo, Ambrosia elatior; conditions: 0 to 100 scale, 0 no effect, 100 complete control
Procedure, shortened: as §2

[10] = tested on: wheat; assay: Test A postemergence; format: in vivo, Triticum aestivum; conditions: 0 to 100 scale, 0 no effect, 100 complete control
Procedure, shortened: as §2

[11] = tested on: galium; assay: Test A postemergence; format: in vivo, Galium aparine
Procedure, shortened: as §2

[12] = tested on: giant foxtail; assay: Test A preemergence; format: in vivo, Setaria faberii; conditions: for Plant response rating, Foxtail, Giant: 0 to 100 scale where 0 is no effect and 100 is complete control
Procedure, shortened: as §2

[13] = tested on: barnyardgrass; assay: Test A preemergence; format: in vivo, Echinochloa crus-galli; conditions: for Plant response rating, Barnyardgrass: 0 to 100 scale where 0 is no effect and 100 is complete control
Procedure, shortened: as §2

[14] = tested on: kochia; assay: Test A preemergence; format: in vivo, Kochia scoparia; conditions: for Plant response rating, Kochia: 0 to 100 scale where 0 is no effect and 100 is complete control
Procedure, shortened: as §2

[15] = tested on: Heteranthera limosa; assay: Test B flooded paddy test; format: in vivo; conditions: Flood, 250 g ai/ha; 0 to 100 scale where 0 is no effect and 100 is complete control
Procedure, shortened: as §1

[16] = tested on: pigweed; assay: Test A preemergence; format: in vivo, Amaranthus retroflexus; conditions: for Plant response rating, Pigweed: 0 to 100 scale where 0 is no effect and 100 is complete control
Procedure, shortened: as §2

[17] = tested on: corn; assay: Test A postemergence; format: in vivo, Zea mays
Procedure, shortened: as §2

[18] = tested on: barnyardgrass; assay: Test A postemergence; format: in vivo, Echinochloa crus-galli
Procedure, shortened: as §2

[19] = tested on: giant foxtail; assay: Test A postemergence; format: in vivo, Setaria faberii
Procedure, shortened: as §2

[20] = tested on: Italian ryegrass; assay: Test A preemergence; format: in vivo, Lolium multiflorum; conditions: for Plant response rating, Ryegrass, Italian: 0 to 100 scale where 0 is no effect and 100 is complete control
Procedure, shortened: as §2

[21] = 31 g ai/ha, 0 to 100 scale, 0 no effect, 100 complete control
[22] = 125 g ai/ha, 0 to 100 scale, 0 no effect, 100 complete control
[23] = 31 g ai/ha, visual, approximately 10 days
[24] = 125 g ai/ha, 0 to 100 scale where 0 is no effect and 100 is complete control

Compound	Plant response rating, Barnyardgrass [1]	Plant response rating, Blackgrass [2, 21]	Plant response rating, Blackgrass [2, 22]	Plant response rating, Rice [3]	Plant response rating, Sedge, Umbrella [4]	Plant response rating, Kochia [5, 21]	Plant response rating, Kochia [5, 22]	Plant response rating, Ragweed [6, 23]	Ragweed plant response rating (0 to 100 scale) ([6]; 125 g ai/ha)	Plant response rating, Pigweed ([7]; 31 g ai/ha)	Plant response rating, Pigweed ([7]; 125 g ai/ha)	Plant response rating, Ryegrass, Italian ([8]; 31 g ai/ha)	Plant response rating, Ryegrass, Italian ([8]; 125 g ai/ha)	Plant response rating, Ragweed ([9]; 31 g ai/ha)	Plant response rating, Wheat ([10]; 31 g ai/ha)	Plant response rating, Galium [11, 21]	Plant response rating, Ducksalad [15]	Plant response rating, Corn [17, 21]	Plant response rating, Barnyardgrass [18, 21]	Plant response rating, Foxtail, Giant [19, 21]	further results
Cc1cn(-c2c(C#N)cccc2Oc2ncc(Cl)cn2)cn1 [Compound 260]	0	0	0	0	0	50	60	0	0	50	60	0	0	30	0	50	0	0	0	0	Plant response rating, Ragweed ([9]; 125 g ai/ha): 40; Plant response rating, Wheat ([10]; 125 g ai/ha): 0; Plant response rating, Galium [11, 22]: 60; Plant response rating, Foxtail, Giant [12, 23]: 0; Foxtail, Giant plant response rating (0 to 100 scale) ([12]; 125 g ai/ha): 0; Plant response rating, Barnyardgrass [13, 23]: 0; Barnyardgrass plant response rating (0 to 100 scale, 0 is no effect, 100 is complete control) ([13]; 125 g ai/ha): 0; Plant response rating, Kochia [14, 23]: 0; Kochia plant response rating (0 to 100 scale) ([14]; 125 g ai/ha): 0; Plant response rating, Pigweed [16, 23]: 0; Pigweed plant response rating (0 to 100 scale) ([16]; 125 g ai/ha): 30; Plant response rating, Corn [17, 22]: 10; Plant response rating, Barnyardgrass [18, 22]: 0; Plant response rating, Foxtail, Giant [19, 22]: 0; Plant response rating, Ryegrass, Italian [20, 23]: 0; Ryegrass, Italian plant response rating (0 to 100 scale) ([20]; 125 g ai/ha): 0
Fc1cccc(Oc2ncc(Cl)cn2)c1-n1cc(OC(F)F)cn1 [Compound 271]	0	10	80	0	60	70	100	0	20	70	100	0	30	0	0	70	90	20	10	10	Plant response rating, Ragweed ([9]; 125 g ai/ha): 80; Plant response rating, Wheat ([10]; 125 g ai/ha): 40; Plant response rating, Galium [11, 22]: 100; Plant response rating, Foxtail, Giant [12, 23]: 40; Foxtail, Giant plant response rating (0 to 100 scale) ([12]; 125 g ai/ha): 100; Plant response rating, Barnyardgrass [13, 23]: 20; Barnyardgrass plant response rating (0 to 100 scale, 0 is no effect, 100 is complete control) ([13]; 125 g ai/ha): 100; Plant response rating, Kochia [14, 23]: 70; Kochia plant response rating (0 to 100 scale) ([14]; 125 g ai/ha): 100; Plant response rating, Pigweed [16, 23]: 90; Pigweed plant response rating (0 to 100 scale) ([16]; 125 g ai/ha): 100; Plant response rating, Corn [17, 22]: 30; Plant response rating, Barnyardgrass [18, 22]: 80; Plant response rating, Foxtail, Giant [19, 22]: 90; Plant response rating, Ryegrass, Italian [20, 23]: 0; Ryegrass, Italian plant response rating (0 to 100 scale) ([20]; 125 g ai/ha): 10
N#Cc1cnn(-c2c(CF)cccc2Oc2ncc(Br)cn2)c1 [Compound 243]	0	0	30	0	0	20	30	0	20	10	20	0	0	20	0	0	30	0	0	0	Plant response rating, Ragweed ([9]; 125 g ai/ha): 20; Plant response rating, Wheat ([10]; 125 g ai/ha): 20; Plant response rating, Galium [11, 22]: 10; Plant response rating, Foxtail, Giant [12, 23]: 0; Foxtail, Giant plant response rating (0 to 100 scale) ([12]; 125 g ai/ha): 100; Plant response rating, Barnyardgrass [13, 23]: 0; Barnyardgrass plant response rating (0 to 100 scale, 0 is no effect, 100 is complete control) ([13]; 125 g ai/ha): 30; Plant response rating, Kochia [14, 23]: 0; Kochia plant response rating (0 to 100 scale) ([14]; 125 g ai/ha): 90; Plant response rating, Pigweed [16, 23]: 0; Pigweed plant response rating (0 to 100 scale) ([16]; 125 g ai/ha): 80; Plant response rating, Corn [17, 22]: 0; Plant response rating, Barnyardgrass [18, 22]: 0; Plant response rating, Foxtail, Giant [19, 22]: 10; Plant response rating, Ryegrass, Italian [20, 23]: 0; Ryegrass, Italian plant response rating (0 to 100 scale) ([20]; 125 g ai/ha): 0
FCCc1cn(-c2c(F)cccc2Oc2ncc(Cl)cn2)nn1 [Compound 108]	0	30	–	35	80	70	–	–	–	50	–	0	–	20	10	70	85	20	20	20	Plant response rating, Blackgrass [2, 24]: 80; Plant response rating, Kochia [5, 24]: 90; Ragweed plant response rating (0 to 100 scale) ([6]; 31 g ai/ha): 70; Plant response rating, Ragweed ([6]; 125 g ai/ha): 80; Plant response rating, Galium [11, 24]: 90; Foxtail, Giant plant response rating (0 to 100 scale) ([12]; 31 g ai/ha): 20; Plant response rating, Foxtail, Giant ([12]; 125 g ai/ha): 90; Barnyardgrass plant response rating (0 to 100 scale) ([13]; 31 g ai/ha): 10; Plant response rating, Barnyardgrass ([13]; 125 g ai/ha): 70; Kochia plant response rating (0 to 100 scale) ([14]; 31 g ai/ha): 40; Plant response rating, Kochia ([14]; 125 g ai/ha): 70; Pigweed plant response rating (0 to 100 scale) ([16]; 31 g ai/ha): 90; Plant response rating, Pigweed ([16]; 125 g ai/ha): 100; Plant response rating, Corn [17, 24]: 30; Plant response rating, Barnyardgrass [18, 24]: 60; Plant response rating, Foxtail, Giant [19, 24]: 70; Ryegrass, Italian plant response rating (0 to 100 scale) ([20]; 31 g ai/ha): 0; Plant response rating, Ryegrass, Italian ([20]; 125 g ai/ha): 30

Source: patent publication US9695155B2, “Herbicidal substituted pyrimidinyloxy benzene compounds” (E. I. DU PONT DE NEMOURS AND COMPANY, priority 2013, dated 2017)
